# Test results as given in patent publication US10000487B2, “Heterocyclic compounds that inhibit the kinase activity of Mnk useful for treating various cancers” (eFFECTOR Therapeutics, Inc., priority 2015, dated 2018).
# How the values were obtained:
# Phosphorylated eIF4E = test: peIF4E signaling cellular assay (CisBio HTRF); assay type: cell-based; settings: 2 hrs incubation at 37° C.
# Procedure: Phosphorylated eIF4E is assayed using the CisBio peIF4E HTRF® assay kit (CisBio, catalogue No. 64EF4PEG). Cells are plated in 96-well tissue-culture treated plate in appropriate growth medium (90 μL). Compounds (10×) are diluted using 3-fold serial dilutions in cell culture medium and added to cells. Plates are incubated for 2 hrs at 37° C. The cell supernatant is carefully removed either by aspirating supernatant or by flicking the plate. Immediately 50 μL of supplemented lysis buffer (1×) is added and incubated for at least 30 minutes at room temperature under shaking. After homogenization by pipeting up and down, 16 μL of cell lysate is transferred from the 96-well cell-culture plate to a 384-well small volume white plate. 4 μL of premixed antibody solutions (vol/vol) is prepared in the detection buffer and added. The plate is covered with a plate sealer and incubated overnight at room temperature. The fluorescence emissions at two different wavelengths are read (665 nm and 620 nm) on a Wallac Victor2. Emission ratios are converted into percent inhibitions and imported into GraphPad Prism software. […] IC50 values are determined using a nonlinear regression model available in GraphPad Prism 5.
# recombinant MNK2 = recombinant MNK2 (Homo sapiens (Human), UniProt Q9HBH9); test: MNK biochemical enzymatic assay (ADP-Glo), MNK2; settings: 3 nM MNK2, 10 μM ATP
# Chain of recombinant MNK2 (Q9HBH9 whole entry): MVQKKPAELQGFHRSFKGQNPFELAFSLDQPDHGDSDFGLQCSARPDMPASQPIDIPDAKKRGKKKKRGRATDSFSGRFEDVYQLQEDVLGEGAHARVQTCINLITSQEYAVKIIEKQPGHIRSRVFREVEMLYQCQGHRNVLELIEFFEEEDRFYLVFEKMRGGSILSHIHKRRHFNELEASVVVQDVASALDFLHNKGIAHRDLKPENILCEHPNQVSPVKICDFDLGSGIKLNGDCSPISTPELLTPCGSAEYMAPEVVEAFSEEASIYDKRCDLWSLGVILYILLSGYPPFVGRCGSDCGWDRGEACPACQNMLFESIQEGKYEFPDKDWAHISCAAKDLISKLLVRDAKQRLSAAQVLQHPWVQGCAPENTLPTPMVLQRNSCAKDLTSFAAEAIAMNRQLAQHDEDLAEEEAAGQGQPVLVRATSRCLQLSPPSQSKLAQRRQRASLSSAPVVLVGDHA
# Procedure: (§1) Compounds are screened for MNK inhibition using the ADP-Glo kinase assay kit (Promega, catalogue No. V9101). All kinase reactions are performed in Reaction Buffer E (15 mM HEPES pH7.4, 20 mM NaCl, 1 mM EGTA, 10 mM MgCl2, 0.1 mg/ml BGG, and 0.02% Tween-20). Final MNK1 reactions contained 10 nM recombinant MNK1 (Life Technologies, PR9138A), 100 μM MNK substrate peptide Ac-TATKSGSTTKNR-NH2 (American Peptide Company), 300 μM ATP, and varying concentrations of the inhibitory compound of interest. Final MNK2 reactions contained 3 nM recombinant MNK2 (Life Technologies, PV5607), 50 μM MNK substrate peptide Ac-TATKSGSTTKNR-NH2 (American Peptide Company), 10 μM ATP, and varying concentrations of the inhibitory compound of interest. Final DMSO concentration in each reaction is 1%.
# (§2) Kinase reactions are carried out in 96-well half-area white flat-bottom polystyrene plates in a final volume of 25 μl. MNK1/2 enzymes are pre-incubated with compound and peptide substrate for 5 minutes prior to the addition of ATP. After the addition of ATP, kinase reactions are incubated at room temperature for 40 minutes. Reactions are subsequently stopped by the addition of 25 μl of ADP-Glo Reagent and incubating for an additional 40 minutes. The final luminescent signal used for kinase activity readout is produced by the addition of 45 μl of Kinase Detection Reagent (ADP-Glo kit, Promega) and incubating for 40 minutes. The luminescent signal is detected using a Victor 2 multilabel counter (Perkin Elmer) and the concentration of compound necessary to achieve inhibition of enzyme activity by 50% (IC50) is calculated using signals from an 8-point compound dilution series.
# recombinant MNK1 = recombinant MNK1 (Homo sapiens (Human), UniProt Q9BUB5); test: MNK biochemical enzymatic assay (ADP-Glo), MNK1; parameters: key to MNK1 IC50: IC50 values of less than 0.01 μM are labelled as “+++”; from 0.01 to 0.10 μM are labelled as “++”; from 0.1 to 10 μM are labelled as “+”; Inactive: greater than 10 μM are labelled inactive; settings: 10 nM MNK1, 300 μM ATP
# Chain of recombinant MNK1 (Q9BUB5 whole entry): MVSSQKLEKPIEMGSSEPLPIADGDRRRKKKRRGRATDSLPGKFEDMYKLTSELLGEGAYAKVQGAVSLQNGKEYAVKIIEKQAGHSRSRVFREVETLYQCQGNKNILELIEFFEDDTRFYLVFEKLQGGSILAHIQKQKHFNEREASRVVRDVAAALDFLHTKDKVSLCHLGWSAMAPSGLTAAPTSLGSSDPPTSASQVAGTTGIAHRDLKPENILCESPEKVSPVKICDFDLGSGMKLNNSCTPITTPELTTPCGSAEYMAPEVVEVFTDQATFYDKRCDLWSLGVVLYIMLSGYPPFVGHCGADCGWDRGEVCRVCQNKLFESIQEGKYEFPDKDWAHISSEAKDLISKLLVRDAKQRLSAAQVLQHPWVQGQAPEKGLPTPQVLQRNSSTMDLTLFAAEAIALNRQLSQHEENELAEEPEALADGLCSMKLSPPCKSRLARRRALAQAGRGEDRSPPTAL
# Procedure: as §1, §2
Structure (SMILES),IC50 (Phosphorylated eIF4E),IC50 (recombinant MNK2),IC50 (recombinant MNK1),MNK1 IC50 (recombinant MNK1)
"O=C1NC2(CCCCC2)n2c1c(Cl)cc(Nc1cn[nH]n1)c2=O [compound 9, 6′-((2H-1,2,3-triazol-4-yl)amino)-8′-chloro-2′H-spiro[cyclohexane-1,3′-imidazo[1,5-a]pyridine]-1′,5′-dione]",100 to 100000 nM,< 10 nM,10 to 100 nM,
"Nc1cc(Nc2cc(Cl)c3n(c2=O)C2(CCCCC2)NC3=O)ccn1 [compound 13, 6′-((2-aminopyridin-4-yl)amino)-8′-chloro-2′H-spiro[cyclohexane-1,3′-imidazo[1,5-a]pyridine]-1′,5′-dione]",100 to 100000 nM,10 to 100 nM,,
"O=C1NC2(CCCCC2)n2c1c(Cl)cc(Nc1nnco1)c2=O [compound 8, 6′-((1,3,4-oxadiazol-2-yl)amino)-8′-chloro-2′H-spiro[cyclohexane-1,3′-imidazo[1,5-a]pyridine]-1′,5′-dione]",100 to 100000 nM,100 to 10000 nM,100 to 10000 nM,
"O=C1NC2(CCCCC2)n2c1c(Cl)cc(Nc1cnns1)c2=O [compound 3, 6′-((1,2,3-thiadiazol-5-yl)amino)-8′-chloro-2′H-spiro[cyclohexane-1,3′-imidazo[1,5-a]pyridine]-1′,5′-dione]",100 to 100000 nM,10 to 100 nM,,Inactive
"O=C1NC2(CCCCC2)n2c1c(Cl)cc(Nc1cncs1)c2=O [compound 5, 8′-chloro-6′-(thiazol-5-ylamino)-2′H-spiro[cyclohexane-1,3′-imidazo[1,5-a]pyridine]-1′,5′-dione]",,10 to 100 nM,100 to 10000 nM,
"O=C1NC2(CCCCC2)n2c1c(Cl)cc(Nc1ncncn1)c2=O [compound 11, 6′-((1,3,5-triazin-2-yl)amino)-8′-chloro-2′H-spiro[cyclohexane-1,3′-imidazo[1,5-a]pyridine]-1′,5′-dione]",10 to 100 nM,< 10 nM,,
"O=C1NC2(CCCCC2)n2c1c(Cl)cc(Nc1cnsn1)c2=O [compound 6, 6′-((1,2,5-thiadiazol-3-yl)amino)-8′-chloro-2′H-spiro[cyclohexane-1,3′-imidazo[1,5-a]pyridine]-1′,5′-dione]",100 to 100000 nM,< 10 nM,,
"Cn1ncc(Nc2cc(Cl)c3n(c2=O)C2(CCCCC2)NC3=O)n1 [compound 7, 8′-chloro-6′-((2-methyl-2H-1,2,3-triazol-4-yl)amino)-2′H-spiro[cyclohexane-1,3′-imidazo[1,5-a]pyridine]-1′,5′-dione]",100 to 100000 nM,< 10 nM,,

# Now from value to compound:
IC50 (Phosphorylated eIF4E),IC50 (recombinant MNK2),IC50 (recombinant MNK1),MNK1 IC50 (recombinant MNK1),Structure (SMILES)
100 to 100000 nM,< 10 nM,10 to 100 nM,,"O=C1NC2(CCCCC2)n2c1c(Cl)cc(Nc1ncns1)c2=O [2F, 6′-((1,2,4-thiadiazol-5-yl)amino)-8′-chloro-2′H-spiro[cyclohexane-1,3′-imidazo[1,5-a]pyridine]-1′,5′-dione]"
100 to 100000 nM,10 to 100 nM,100 to 10000 nM,,"O=C1NC2(CCCCC2)n2c1c(Cl)cc(Nc1nncs1)c2=O [1F, 6′-((1,3,4-thiadiazol-2-yl)amino)-8′-chloro-2′H-spiro[cyclohexane-1,3′-imidazo[1,5-a]pyridine]-1′,5′-dione]"
,10 to 100 nM,100 to 10000 nM,,"O=C1NC2(CCCCC2)n2c1c(Cl)cc(Nc1ncn[nH]1)c2=O [4F, 6′-((1H-1,2,4-triazol-5-yl)amino)-8′-chloro-2′H-spiro[cyclohexane-1,3′-imidazo[1,5-a]pyridine]-1′,5′-dione]"
